CCOc1ccc(C2NC(=O)NC=C2C(=O)c2cc(OC)c(OC)c(OC)c2)cc1 (stereo not given)
solubility (mole fraction)
Settings	298.15 K	303.15 K	308.15 K	313.15 K	318.15 K
in DMSO	0.00547	0.0065	0.00754	0.00879	0.00996
in ethanol	0.000294	0.000402	0.000516	0.000654	0.000802
in ethyl acetate	0.00143	0.00174	0.00222	0.00286	0.00345
in ethylene glycol	0.000397	0.000543	0.000697	0.000866	0.00107
in isopropanol	0.000469	0.000619	0.000772	0.000958	0.00113
in methanol	0.000252	0.000328	0.000407	0.00049	0.000577
in n-butanol	0.000672	0.000859	0.00105	0.00125	0.00146
in propylene glycol	0.000504	0.000682	0.00087	0.00107	0.00133
in sec-butanol	0.00067	0.000855	0.00104	0.00124	0.00145
in transcutol	0.00301	0.00367	0.00441	0.00519	0.00624
in water	7.87e-06	1.09e-05	1.51e-05	2.02e-05	2.54e-05

Settings	solubility (mole fraction)
in PEG-400, 298.15 K	0.00521
in PEG-400, 303.15 K	0.00675
in PEG-400, 308.15 K	0.00831
in PEG-400, 313.15 K	0.0103
in PEG-400, 318.15 K	0.0121
